Measured values: patent US20100273189A1, “NON SEPARATION ASSAYS WITH SELECTIVE SIGNAL INHIBITORS” (BECKMAN COULTER, INC., priority 2009, published 2010)
Read-outs that look alike come from different tables or passages of the source. Values belong to the compound of their own block, whether it stands above or below them.

How the values were obtained:
PSA = experiment: Screening SSIA by homogeneous PSA immunoassay; format: biochemical
Method: This example presents one method used for testing of candidate compounds for functionality as SSIA in assays of the present disclosure. Testing was conducted in a model screening immunoassay of the protein PSA. Mouse anti-PSA tests were run using a 96-well microtiter plate format. […] The plate was incubated at 37° C. for 10 minutes. A 5 μL aliquot of the test compound (various concentrations) was added to each well. Chemiluminescence was triggered by the addition of 100 μL of a solution of trigger solution A. The chemiluminescent flash was integrated for 5 seconds after the addition of the trigger solution using a Luminoskan Asent® plate luminometer, (Thermo Fischer Scientific, Inc., Waltham, Mass.).
It is desirable that the improvement factor be at least 2 (S5/S0≧ about 20-30) and more desirable that improvement factor be at least 5 (S5/S0≧ about 50), yet more desirable that S5/S0 be ≧100 in the present screen.

biotinylated HRP = target: T1, biotinylated HRP (Armoracia rusticana, UniProt P00433); experiment: Model system for selection of SSIA (M280 btn-BSA-AK1-streptavidin particles + Btn-HRP:HRP); format: biochemical; conditions: for B-HRP0 light intensity: Btn-HRP 0 ng/mL; for B-HRP0 light intensity / B-HRP1 light intensity / B-HRP10 light intensity / B-HRP100 light intensity / B-HRP250 light intensity: total HRP 500 ng/mL, SSIA final 100 μM; for B-HRP1 light intensity: Btn-HRP 1 ng/mL; for B-HRP10 light intensity: Btn-HRP 10 ng/mL; for B-HRP100 light intensity: Btn-HRP 100 ng/mL; for S/S0: Btn-HRP 0 ng/mL vs 0; for S/S0 / S1/S0 / S2/S0 / S3/S0 / S4/S0 / effect in the model system / utility as SSIA: SSIA 100 μM; for S1/S0: Btn-HRP 1 ng/mL vs 0; for S2/S0: Btn-HRP 10 ng/mL vs 0; for S3/S0: Btn-HRP 100 ng/mL vs 0; for S4/S0: Btn-HRP 250 ng/mL vs 0; for B-HRP250 light intensity: Btn-HRP 250 ng/mL; for effect in the model system / utility as SSIA: conclusion in words
T1 construct: purchased Roche Diagnostics, Indianapolis, Ind., USA
T1 sequence (P00433 31-338 limits assumed): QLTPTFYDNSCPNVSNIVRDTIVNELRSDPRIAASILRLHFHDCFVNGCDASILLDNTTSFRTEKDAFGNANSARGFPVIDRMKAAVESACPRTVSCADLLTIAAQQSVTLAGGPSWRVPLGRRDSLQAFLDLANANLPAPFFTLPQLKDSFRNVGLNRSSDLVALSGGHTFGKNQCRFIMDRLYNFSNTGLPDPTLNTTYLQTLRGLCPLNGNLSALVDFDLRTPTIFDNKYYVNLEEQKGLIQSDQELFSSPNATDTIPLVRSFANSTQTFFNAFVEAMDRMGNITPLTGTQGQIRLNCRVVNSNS
Method: The model system uses a microparticle conjugated to BSA (bovine serum albumin) labeled with a […] and acridan ketenedithioacetal chemiluminescent label (AK1) as the chemiluminescent-labeled sbp, and biotinylated HRP as the activator-labeled specific binding pair. In the model system, varying amounts of Btn-HRP is added to the chemiluminescent-labeled specific binding pair at 0, 1, 10, 100 and 250 ng/mL. Additional unlabeled HRP is added to reach a total HRP of concentration of 500 ng/mL in each reaction mixture. The unlabeled HRP in combination with the activator-labeled sbp was provided to the chemiluminescent-labeled sbp microparticles to emulate sample. A compound for assessment as an SSIA was also added. This reaction mixture of the model system is then triggered by addition of trigger solution in a manner of assays of the present disclosure.
To prepare the chemiluminescent-labeled sbp on microparticles, Bovine Serum Albumin (BSA) was biotinylated with 4× molar excess of biotin-LC-sulfoNHS (Pierce Biotechnology Inc., Rockford, Ill., USA). Unbound reactants were removed via desalting or dialysis. The biotin-BSA was then reacted with a 5× molar excess of acridan ketenedithioacetal AK1 in 20 mM sodium phosphate pH 7.2: DMSO 75:25, v/v) followed by desalting in the same buffer. The dual labeled (biotin and AK1) BSA was then coupled with tosyl activated M-280 microparticles (Invitrogen Corporation, Carlsbad, Calif., USA) in a 0.1 M borate buffer pH 9.5 at a concentration of ca. 20 μg labeled BSA per mg of microparticles for 16-24 h at 40° C. After coupling the microparticles were stripped for 1 h at 40° C. with 0.2 M TRIS base, 2% SDS, pH ˜11. The stripping process was repeated one additional time. Microparticles were then suspended in a 0.1% BSA/TRIS buffered saline (BSA/TBS) buffer and streptavidin (SA) was added at approximately 15 μg SA per mg microparticles. Streptavidin was mixed with the microparticles for 45-50 min at room temperature. The microparticles were then washed three times and suspended in the same BSA/TBS.
HRP, (Roche Diagnostics, Indianapolis, Ind., USA) was biotinylated with 4× molar excess of biotin-LC-sulfoNHS (Pierce Biotechnology Inc., Rockford, Ill., USA). Unbound reactants were removed via desalting or dialysis.
Each SSIA compound for assessment was dissolved in Buffer II at a concentration at least 10× of final concentration of the reaction mixture (after the addition of the trigger solution)
Paramagnetic particles (PMP): (M280)-(btn-BSA-AK)-(Streptavidin);
Sample Emulator: B-HRP:HRP; 500 ng/mL total with titration of B-HRP:HRP at Total HRP concentration of 500 ng/mL, with Btn-HRP variations: 0, 1, 10, 100 and 250 ng/mL.
SSIA: According to tables below in BUFFER II targeted to give a final concentration of 100 μM.
Trigger solution A is defined above.
5 μl of 1 mg/ml of dual-labeled (biotin and AK1) BSA M280 particles were mixed with 45 μl of working concentration SSIA in Buffer II. The assay volume brought to […] by adding 15 μl of Buffer II. 15 μl of sample containing Btn-HRP:HRP at different ratios (The amount of biotinylated-HRP varied from 0, 1, 10, 100 and 250 ng/mL) was added. The reaction mixture was incubated for 30 min at 37° C., then 100 μL of trigger solution was added and the light intensity recorded. Total volume of reaction mixture, including trigger solution was […] with a final concentration of 100 μM of SSIA.

[1] = PSA 129 ng/mL (S5) vs zero, test compound final conc. 0.122 mM
[2] = PSA 129 ng/mL (S5) vs zero, test compound final conc. 122 uM
[3] = PSA 129 ng/mL (S5) vs zero, test compound final conc. 0.244 mM

SMILES: Nc1ncccc1O
S5/S0 (PSA; [1]): 32

SMILES: COc1ccccc1N
S5/S0 (PSA; [1]): 7

SMILES: c1ccc2c(c1)Nc1ccccc1O2
S5/S0 (PSA; [1]): 605

SMILES: c1ccc2c(c1)Cc1ccccc1N2
S5/S0 (PSA): 120

SMILES: COC1=C(O)C(=O)O[C@@H]1[C@@H](O)CO
S5/S0 (PSA; [2]): 16

SMILES: O=C1O[C@H]([C@@H](O)CO)C(=O)C1=O
S5/S0 (PSA; [1]): 26

SMILES: COc1cc(O)ccc1O
S5/S0 (PSA; PSA 129 ng/mL (S5) vs zero, test compound final conc. 0.111 mM): 161

SMILES: Nc1cccc(Cl)c1O
S5/S0 (PSA; [3]): 300

SMILES: Oc1cccnc1O
S5/S0 (PSA; [1]): 41

SMILES: O=C(O)/C(O)=C(/O)C(=O)O
S5/S0 (PSA; [1]): 30

SMILES: O=C(O)c1cccc(O)c1O
S5/S0 (PSA; [1]): 22

SMILES: c1ccc2c(c1)Cc1ccccc1S2
S5/S0 (PSA; [1]): 9

SMILES: O=C(O)C1c2ccccc2Oc2ccccc21
S5/S0 (PSA; [1]): 7

SMILES: O=C(c1ccccc1)C1c2ccccc2Nc2ccccc21
S5/S0 (PSA; [1]): 9

SMILES: O=S(=O)([O-])CCCN1c2ccccc2Cc2ccccc21.[Na+]
S5/S0 (PSA; [3]): 15

SMILES: NNC(=O)c1ccccc1O
S5/S0 (PSA; PSA 129 ng/mL (S5) vs zero, test compound final conc. 0.061 mM): 23

SMILES: O=C1C=C(O)C(=O)C=C1O
S5/S0 (PSA; [3]): 14

SMILES: OB(O)c1cc(Cl)ccc1O
S5/S0 (PSA; [3]): 22

SMILES: Nc1ccccc1S
S5/S0 (PSA; [1]): 234

SMILES: Nc1cc2ccccc2cc1O
S5/S0 (PSA; [3]): 67

SMILES: Nc1ccc2ccccc2c1O
S5/S0 (PSA; [3]): 109

SMILES: Oc1ccc(O)c(Br)c1
S5/S0 (PSA; [1]): 570

SMILES: Nc1cc(C[C@H](N)C(=O)O)ccc1O
S5/S0 (PSA; [3]): 448

SMILES: C[C@H]1OC(=O)C(O)=C1O
S5/S0 (PSA; [1]): 423

SMILES: O=C1O[C@H]([C@@H](O)CO)C([O-])=C1O.[Na+]
S5/S0 (PSA; [2]): 9.2

SMILES: O=C1O[C@H]([C@H](O)CO)C(O)=C1O
S5/S0 (PSA; [2]): 10.3

B-HRP0 light intensity (biotinylated HRP): 64,051
B-HRP1 light intensity (biotinylated HRP): 81,452
B-HRP10 light intensity (biotinylated HRP): 1,073,968
B-HRP100 light intensity (biotinylated HRP): 5,944,792
SMILES: Oc1ccc(C=Cc2cc(O)cc(O)c2)cc1 [Resveratrol]

S/S0 (biotinylated HRP): 1
B-HRP0 light intensity (biotinylated HRP): 14,485
S1/S0 (biotinylated HRP): 1.6
B-HRP1 light intensity (biotinylated HRP): 23,707
S2/S0 (biotinylated HRP): 64.8
B-HRP10 light intensity (biotinylated HRP): 939,372
S3/S0 (biotinylated HRP): 547.2
B-HRP100 light intensity (biotinylated HRP): 7,927,096
S4/S0 (biotinylated HRP): 658
B-HRP250 light intensity (biotinylated HRP): 9,530,979
SMILES: COc1cc(C(=O)O)cc(OC)c1O [Syringic Acid]

SMILES: CC1(C)CC(O)CC(C)(C)N1[O] [TEMPOL]
S/S0 (biotinylated HRP): 1
B-HRP0 light intensity (biotinylated HRP): 22,621
S1/S0 (biotinylated HRP): 1.5
B-HRP1 light intensity (biotinylated HRP): 33,873
S2/S0 (biotinylated HRP): 86.8
B-HRP10 light intensity (biotinylated HRP): 1,963,369
S3/S0 (biotinylated HRP): 407.6
B-HRP100 light intensity (biotinylated HRP): 9,220,799
S4/S0 (biotinylated HRP): 467.6
B-HRP250 light intensity (biotinylated HRP): 10,578,104
effect in the model system / utility as SSIA (biotinylated HRP): no effect

S/S0 (biotinylated HRP): 1
B-HRP0 light intensity (biotinylated HRP): 173
S1/S0 (biotinylated HRP): 8.4
B-HRP1 light intensity (biotinylated HRP): 1,460
S2/S0 (biotinylated HRP): 215.1
B-HRP10 light intensity (biotinylated HRP): 37,291
S3/S0 (biotinylated HRP): 41832.7
B-HRP100 light intensity (biotinylated HRP): 7,251,008
S4/S0 (biotinylated HRP): 62274.5
B-HRP250 light intensity (biotinylated HRP): 10,794,247
effect in the model system / utility as SSIA (biotinylated HRP): demonstrating utility as SSIA
SMILES: Cc1c(C)c2c(c(C)c1O)CCC(C)(C(=O)O)O2 (stereo not drawn) [Trolox ®, Trolox]

S/S0 (biotinylated HRP): 1
B-HRP0 light intensity (biotinylated HRP): 5,532
S1/S0 (biotinylated HRP): 1.8
B-HRP1 light intensity (biotinylated HRP): 9,760
S2/S0 (biotinylated HRP): 185.3
B-HRP10 light intensity (biotinylated HRP): 1,025,209
S3/S0 (biotinylated HRP): 1574.9
B-HRP100 light intensity (biotinylated HRP): 8,712,328
S4/S0 (biotinylated HRP): 1935.8
B-HRP250 light intensity (biotinylated HRP): 10,708,733
SMILES: O=c1[nH]c(=O)c2[nH]c(=O)[nH]c2[nH]1 [Uric Acid]
